This is an account of results in ChEMBL document CHEMBL5465560, “Selectivity Literature for EUbOPEN Chemogenomic Library” (2024).

Each structure is given as a SMILES string.

Experiment [1] has as its target T1, Tyrosine-protein kinase ZAP-70 (Homo sapiens) (UniProt P43403).
T1 sequence (whole entry): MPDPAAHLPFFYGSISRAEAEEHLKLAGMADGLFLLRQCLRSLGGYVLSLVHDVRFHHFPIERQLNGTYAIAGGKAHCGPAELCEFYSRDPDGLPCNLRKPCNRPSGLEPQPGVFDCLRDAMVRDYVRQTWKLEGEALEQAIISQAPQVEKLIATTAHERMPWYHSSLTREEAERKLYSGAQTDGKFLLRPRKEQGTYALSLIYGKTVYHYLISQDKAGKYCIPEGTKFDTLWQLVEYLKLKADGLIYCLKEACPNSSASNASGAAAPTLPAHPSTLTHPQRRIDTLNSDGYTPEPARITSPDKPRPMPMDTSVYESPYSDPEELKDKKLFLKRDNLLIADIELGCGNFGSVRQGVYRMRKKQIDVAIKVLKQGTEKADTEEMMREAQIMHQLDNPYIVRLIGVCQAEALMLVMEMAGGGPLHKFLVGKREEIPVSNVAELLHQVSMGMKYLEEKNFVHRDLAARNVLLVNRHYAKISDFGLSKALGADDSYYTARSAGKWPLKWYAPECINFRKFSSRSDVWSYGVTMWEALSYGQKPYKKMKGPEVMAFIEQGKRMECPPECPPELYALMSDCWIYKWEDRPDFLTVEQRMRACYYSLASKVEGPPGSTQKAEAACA
Briefly: Selectivity interaction (KinomeScan (DiscoverX)) EUB0000695a ZAP70. Conditions: at 100 nM.

The target of experiment [2] is T2, Mitogen-activated protein kinase kinase kinase 13 (Homo sapiens) (UniProt O43283).
T2 sequence (whole entry): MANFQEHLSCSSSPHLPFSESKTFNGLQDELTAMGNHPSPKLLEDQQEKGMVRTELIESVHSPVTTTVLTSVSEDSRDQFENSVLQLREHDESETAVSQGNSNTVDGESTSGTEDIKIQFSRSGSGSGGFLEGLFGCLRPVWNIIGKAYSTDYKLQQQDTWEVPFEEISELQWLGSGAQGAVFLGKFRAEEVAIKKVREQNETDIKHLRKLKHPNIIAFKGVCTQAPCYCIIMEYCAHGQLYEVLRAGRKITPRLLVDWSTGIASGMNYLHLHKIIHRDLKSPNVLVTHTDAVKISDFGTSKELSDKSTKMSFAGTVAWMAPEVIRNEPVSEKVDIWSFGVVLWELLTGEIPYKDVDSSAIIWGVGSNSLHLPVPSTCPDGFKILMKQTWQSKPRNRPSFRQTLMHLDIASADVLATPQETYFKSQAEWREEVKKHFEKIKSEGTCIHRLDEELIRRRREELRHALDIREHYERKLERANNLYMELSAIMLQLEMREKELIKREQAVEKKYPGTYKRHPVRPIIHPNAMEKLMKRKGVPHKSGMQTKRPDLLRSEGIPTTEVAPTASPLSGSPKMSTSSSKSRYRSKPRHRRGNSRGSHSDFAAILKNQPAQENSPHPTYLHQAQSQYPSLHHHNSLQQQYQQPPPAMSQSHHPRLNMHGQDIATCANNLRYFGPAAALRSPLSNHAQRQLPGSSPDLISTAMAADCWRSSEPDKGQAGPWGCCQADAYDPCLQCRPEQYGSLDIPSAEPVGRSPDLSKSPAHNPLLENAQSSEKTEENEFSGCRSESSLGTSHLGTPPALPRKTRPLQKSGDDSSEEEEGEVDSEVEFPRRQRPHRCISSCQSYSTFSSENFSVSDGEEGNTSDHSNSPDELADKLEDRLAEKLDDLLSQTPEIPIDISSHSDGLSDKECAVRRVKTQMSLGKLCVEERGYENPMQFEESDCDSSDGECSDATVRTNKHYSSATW
Briefly: Selectivity interaction (KinomeScan (DiscoverX)) EUB0000092b MAP3K13. Conditions: at 10 µM.

Experiment [3] has as its target T3, Mitogen-activated protein kinase kinase kinase 5 (Homo sapiens) (UniProt Q99683).
T3 sequence (whole entry): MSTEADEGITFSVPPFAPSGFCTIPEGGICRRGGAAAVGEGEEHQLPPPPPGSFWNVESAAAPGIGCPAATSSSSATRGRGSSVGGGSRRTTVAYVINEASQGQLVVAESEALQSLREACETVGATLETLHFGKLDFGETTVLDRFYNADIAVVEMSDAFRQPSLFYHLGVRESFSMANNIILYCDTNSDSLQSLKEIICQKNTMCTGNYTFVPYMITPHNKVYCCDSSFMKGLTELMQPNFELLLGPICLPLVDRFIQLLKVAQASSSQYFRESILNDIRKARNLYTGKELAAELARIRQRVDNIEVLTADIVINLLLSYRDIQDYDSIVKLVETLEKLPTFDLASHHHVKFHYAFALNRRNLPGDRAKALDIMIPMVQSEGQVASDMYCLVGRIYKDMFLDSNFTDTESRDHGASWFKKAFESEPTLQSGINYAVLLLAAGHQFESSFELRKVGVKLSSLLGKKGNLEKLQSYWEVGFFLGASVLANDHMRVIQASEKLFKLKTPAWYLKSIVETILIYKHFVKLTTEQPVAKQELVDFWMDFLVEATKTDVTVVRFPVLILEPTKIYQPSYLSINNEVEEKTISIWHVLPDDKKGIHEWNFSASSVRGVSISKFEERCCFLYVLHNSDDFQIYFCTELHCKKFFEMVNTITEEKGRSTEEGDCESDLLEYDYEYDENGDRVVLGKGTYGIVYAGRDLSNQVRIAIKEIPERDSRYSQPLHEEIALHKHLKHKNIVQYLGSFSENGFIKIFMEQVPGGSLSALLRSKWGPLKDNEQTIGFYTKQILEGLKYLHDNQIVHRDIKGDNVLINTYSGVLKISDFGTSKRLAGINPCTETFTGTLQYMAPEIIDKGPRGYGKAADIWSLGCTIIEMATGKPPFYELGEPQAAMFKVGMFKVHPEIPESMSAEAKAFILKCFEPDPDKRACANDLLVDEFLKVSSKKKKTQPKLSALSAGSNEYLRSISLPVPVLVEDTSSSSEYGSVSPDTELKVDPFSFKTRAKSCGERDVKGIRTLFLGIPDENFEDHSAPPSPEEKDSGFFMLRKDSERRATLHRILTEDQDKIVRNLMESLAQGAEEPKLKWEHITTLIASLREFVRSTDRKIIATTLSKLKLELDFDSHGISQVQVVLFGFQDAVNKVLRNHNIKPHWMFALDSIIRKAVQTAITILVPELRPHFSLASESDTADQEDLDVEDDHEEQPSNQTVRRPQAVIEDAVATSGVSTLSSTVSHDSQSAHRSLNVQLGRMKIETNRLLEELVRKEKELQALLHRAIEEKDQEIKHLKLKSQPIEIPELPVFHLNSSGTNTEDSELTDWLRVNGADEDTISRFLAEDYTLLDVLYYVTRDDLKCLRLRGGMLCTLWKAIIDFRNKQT
In words: Selectivity interaction (Upstate Kinase Profiler service (Millipore)) EUB0000056c MAP3K5. Conditions: at 1 µM.

As to `Cc1cc(F)c(C(=O)Nc2cccc(-c3nncn3C(C)C)n2)cc1-n1cnc(C2CC2)c1`, in experiment [1], the % of control was found to be 100%.

The compound `CCC(=O)N1CCN(c2ccc(-n3c(=O)ccc4cnc5ccc(-c6cnc7ccccc7c6)cc5c43)cc2C(F)(F)F)CC1` showed a % of control in experiment [2] of 100%.

`Cc1ccc(-c2ccc3c(ccc4sc5c(c43)NC[C@@H](C)NC5=O)n2)cn1` had a % of inhibition in experiment [3] of 90%.
